Assay results from patent US7915402B2, “Antioxidant inflammation modulators: oleanolic acid derivatives with saturation in the C-ring” (Reata Pharmaceuticals, Inc., priority 2008, dated 2011).
≈ marks a conversion by molar mass, not a printed value. Where two headings read alike, the source gives them in different places.

Experiments:
[1] = system: IFNγ-induced NO production in RAW264.7 macrophages; assay: Suppression of IFNγ-induced NO production (Griess reagent); assay type: cell-based, mouse; settings: Mus musculus; RAW264.7, 20 ng/ml IFNγ 24 h, 2 h pre-treatment
How it was run: (§1)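 Cells pre-treated with DMSO or compound at various nM concentrations for 2 h, then stimulated with 20 ng/ml recombinant mouse IFNγ for 24 h. Nitrite in medium measured by Griess reagent; viability read by WST-1.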

RAW264.7 macrophages = assay: Cell viability, WST-1 reagent; assay type: cell-based, mouse; settings: Mus musculus, RAW264.7 (20 ng/ml IFNγ)
How it was run: as §1

HO-1 = assay: Nrf2 target gene induction, HO-1 mRNA (qPCR); assay type: cell-based, human; settings: MDA-MB-435 cells, 250 nM; fold induction above DMSO control
Method: (§2) FIGS. 17-20. Induction of HO-1. MDA-MB-435 human melanoma cells were treated with vehicle (DMSO) or the indicated compounds and concentrations for 16 hours. HO-1 mRNA levels were quantified using qPCR and were normalized relative to a DMSO-treated sample run in parallel. Values are averages of duplicate wells.
as §2, with “FIG. 21.” for “FIGS. 17-20.”, “HO-1, TrxR1 and γ-GCS.” for “HO-1.”, “HO-1, thioredoxin reductase-1 (TrxR1), and γ-glutamylcysteine synthetase (γ-GCS)” for “HO-1”
as §2, with “Nrf2 target gene induction.” for “FIGS. 17-20. Induction of HO-1.”, “HO-1, thioredoxin reductase-1 (TrxR1), γ-glutamylcysteine synthetase (γ-GCS), and ferritin heavy chain” for “HO-1”, “wells. Primer sequences are as follows.” for “wells.”

[2] = system: thioredoxin reductase-1 (TrxR1); assay: Nrf2 target gene induction, TrxR1 mRNA (qPCR); assay type: cell-based, human; settings: MDA-MB-435 cells, 16 hours
Method: as §2, with “FIG. 21.” for “FIGS. 17-20.”, “HO-1, TrxR1 and γ-GCS.” for “HO-1.”, “HO-1, thioredoxin reductase-1 (TrxR1), and γ-glutamylcysteine synthetase (γ-GCS)” for “HO-1”
as §2, with “FIG. 22.” for “FIGS. 17-20.”, “TrxR1.” for “HO-1.”, “Thioredoxin reductase-1 (TrxR1)” for “HO-1”, “wells. Compounds 401, 402-19 and 402-53 are comparison compounds (see Example 1).” for “wells.”
as §2, with “Nrf2 target gene induction.” for “FIGS. 17-20. Induction of HO-1.”, “HO-1, thioredoxin reductase-1 (TrxR1), γ-glutamylcysteine synthetase (γ-GCS), and ferritin heavy chain” for “HO-1”, “wells. Primer sequences are as follows.” for “wells.”

NQO1 = assay: Nrf2 target gene induction, NQO1; assay type: cell-based, human; settings: MDA-MB-435 cells, 250 nM; fold induction above DMSO control
[3] = Aqueous solubility determination (Multiscreen solubility filter plate, UV/vis); assay type: physicochemical; settings: universal aqueous buffer, pH 7.4, aqueous buffer, kinetic from dmso stock, universal aqueous buffer pH 7.4, 90 min, room temperature
Method: Aqueous Solubility Determination. The following procedure was used to obtain the aqueous solubility results summarized in Example 8. Step 1. Determination of optimal UV/vis wavelengths and generation of standard curves for a compound of interest: • (1) For eight standard calibration curves (one plate), prepare 34 mL of 50:50 (v:v) universal buffer:acetonitrile in a 50 mL tube. • (2) Using a multichannel pipet, dispense (in μL) the buffer:acetonitrile in a deep well plate as follows:
• (6) Cover plate with lid and shake (200-300 rpm) at room temperature for 20 minutes. • (7) Mix all wells by pipetting up and down 10 times. • (8) Transfer 120 μL from each well to a UV transparent plate. Cover and shake for 3-5 minutes. Remove any bubbles in the wells using a pipet. • (9) Read from 220 nm to 500 nm at 10 nm increments on a spectrophotometer (e.g., SpectraMax®).
Step 2. Compound Solubility Testing Procedures Using the Millipore™ Multiscreen® Solubility Filter Plate.
Universal Aqueous Buffer: • (a) To prepare 500 mL of universal buffer, add the following: 250 mL Nanopure water; 1.36 mL (45 mM) ethanolamine; 3.08 g (45 mM) potassium dihydrogen phosphate; 2.21 g (45 mM) potassium acetate; thoroughly mix. • (b) Adjust pH to 7.4 with HCl and q.s. to 500 mL with 0.15 M KCl. • (c) Filter to remove particulates and reduce bacterial growth. • (d) Store at 4° C. in the dark.
Solubility Protocol: • (a) Add 285 μL of Universal Aqueous Buffer to desired wells of the Millipore™ Multiscreen® Solubility filter plate. • (b) Add 15 μL of 10 mM compound in DMSO to the appropriate wells. Add 15 μL of 100% DMSO only to 6 wells of the filter plate for blanks. • (c) Using a multichannel pipet, mix wells by pipetting up and down 10 times. Be careful not to touch the filters in the plate with the tips. • (d) Cover and gently shake (200-300 rpm) filter plate for 90 minutes at room temperature. • (e) Vacuum filter the aqueous solution from the Multiscreen® solubility filter plate into a polypropylene V-bottom plate. • (f) Transfer 60 μL of filtrate to a UV transparent plate (Greiner® UV-Star Analysis Plate). • (g) Add 60 μL of acetonitrile to each well and mix by pipetting up and down 10 times. • (h) Cover and gently shake for 3-5 minutes. Remove any bubbles with a pipet. • (i) Measure the absorbance of each well in the plate on the spectrophotometer (UV/vis) at the desired wavelength. For compounds in a plate with different absorbance peaks, set the spectrophotometer to read a spectrum (e.g., from 220 nm to 460 nm). • (j) Identify concentration using measured absorbance for each compound and the predetermined standard curve (see Step 1).

mice = settings: sesame oil, N=4

For `CC1(C)CC[C@]2(C(=O)NCC(F)(F)F)CC[C@]3(C)[C@H](C(=O)C[C@@H]4[C@@]5(C)C=C(C#N)C(=O)C(C)(C)[C@@H]5CC[C@]43C)[C@@H]2C1` [Compound 63102, (4aS,6aR,6bR,8aR,12aR,12bR,14aR,14bS)-11-cyano-2,2,6a,6b,9,9,12a-heptamethyl-10,14-dioxo-N-(2,2,2-trifluoroethyl)-1,2,3,4,4a,5,6,6a,6b,7,8,8a,9,10,12a,12b,13,14,14a,14b-icosahydropicene-4a-carboxamide], the IC50 [1] was ~45 nM, the IC50 (RAW264.7 macrophages) was > 200 nM and the HO-1 induction (HO-1) was 3 fold. The “TrxR1 mRNA induction: concentration needed compared with unsaturated counterpart (402, 404)” value [2] was “higher concentrations”, the NQO1 induction (NQO1) was 2 fold and the solubility at 90 min [3] was 0.06 µM (≈ 0.0345 µg/mL). For the same compound, the “Number of Deaths” value (mice; oral gavage QDx14, 10 mg/kg) was 0, the “Number of Deaths” value (mice; oral gavage QDx14, 50 mg/kg) was 0 and the “Number of Deaths” value (mice; oral gavage QDx14, 100 mg/kg) was 0. For the same compound, the “Number of Deaths” value (mice; oral gavage QDx14, 250 mg/kg) was 0.
